Measurements: patent US8501721B2, “Postprandial hyperglycemia-improving agent” (Kao Corporation, priority 2009, dated 2013)

Test system: Wistar rats
Assay: Postprandial maximum increase of blood glucose in rat after oral administration of cooked white rice and triolein
Format: in vivo
Settings: for Postprandial maximum increase of blood glucose (maximum increase value from initial value, relative value based on 100 for control group): with 2 mg white rice and 1.5 μg triolein per g body weight, fasted male Wistar rats, average±standard error
Protocol: To white rice (Koshihikari produced in Tochigi prefecture), water (1.5 times equivalent to the volume of the white rice) was added to allow the rice to absorb the water for 30 minutes. Then, the rice was cooked with a rice cooker (ZOJIRUSHI microcomputer-controlled rice cooker NS-KG05, manufactured by Zojirushi Corporation). Water and triolein (manufactured by Sigma-Aldrich Corporation) were added to the cooked rice, followed by homogenization until the mixture was sufficiently homogenized, thereby yielding a sample for administration. The sample for administration was orally probe-administered to a group at 2 mg of white rice per g body weight and 1.5 μg of triolein per g body weight (the group as a control group). Each of the purified cycloartenol produced in Example 1 described above was added to a sample for administration (dissolved in triolein). Each of the resultants was orally probe-administered to a group at 2 mg of white rice per g body weight, 1.5 μg of triolein per g body weight, and 0.075 μg, or 0.15 μg, of cycloartenol equivalent per g body weight (the groups as Test group 1 and 2). Further, purified 24-methylenecycloartanol was added to a sample for administration (dissolved in triolein). The resultant was orally probe-administered to a group at 2 mg of white rice per g body weight, 1.5 μg of triolein per g body weight, and 0.15 μg of 24-methylenecycloartanol equivalent per g body weight (the group as Comparative group).
8-week old male Wistar rats (supplied by Japan SLC Inc.), after 15 hours of fasting, were divided into groups each consisting of 10 rats with their body weight being almost the same between the groups. Immediately after the administration to each group, blood sample was collected from tail vein sequentially. The blood sample was measured for its blood glucose level by using ACCU-CHEK AVIVA (manufactured by Roche Diagnostics GmbH) to calculate the maximum increase of blood glucose.
Results are represented as average±standard error, and statistical significant differences between groups were determined by the Dunnett's test with respect to the control group (*p <0.05).

[1] = 0.15 μg per g body weight, *p<0.05 vs control (Dunnett)

C=C(CC[C@@H](C)[C@H]1CC[C@@]2(C)[C@@H]3CC[C@H]4C(C)(C)[C@@H](O)CC[C@@]45C[C@@]35CC[C@]12C)C(C)C [24-methylenecycloartanol, reference compound]
Postprandial maximum increase of blood glucose (maximum increase value from initial value, relative value based on 100 for control group) [1]: 89.25 ± 4.32 relative value based on 100 for control group

CC(C)=CCC[C@@H](C)[C@H]1CC[C@@]2(C)[C@@H]3CC[C@H]4C(C)(C)[C@@H](O)CC[C@@]45C[C@@]35CC[C@]12C [cycloartenol]
postprandial increase of blood glucose (result in words) (0.075 μg per g body weight, rat): tended to be decreased
Postprandial maximum increase of blood glucose (maximum increase value from initial value, relative value based on 100 for control group) (0.075 μg per g body weight): 92.03 ± 3.16 relative value based on 100 for control group
postprandial increase of blood glucose (result in words) (0.15 μg per g body weight, rat): significantly inhibited
Postprandial maximum increase of blood glucose (maximum increase value from initial value, relative value based on 100 for control group) [1]: 79.74 ± 7.71* relative value based on 100 for control group
effect of inhibiting the postprandial increase of blood glucose compared with 24-methylenecycloartanol (rat, comparison at 0.15 μg per g body weight): stronger than that of 24-methylenecycloartanol
